Reference: patent US8962674B2 (Tokyo Institute of Technology, priority 2006, dated 2015)

melting point	Compound
186 to 192 °C	Nc1ccc(O)cc1/C=C/C(=O)CC(=O)/C=C/c1ccc(O)cc1 [CU488, (1E,6E)-1-(2-amino-5-hydroxyphenyl)-7-(4-hydroxyphenyl)hepta-1,6-diene-3,5-dione]
175 to 179 °C	Nc1ccc(OCc2ccccc2)cc1/C=C/C(=O)CC(=O)/C=C/c1ccc(O)cc1 [CU489, (1E,6E)-1-(2-amino-5-benzyloxyphenyl)-7-(4-hydroxyphenyl)hepta-1,6-diene-3,5-dione]
180 to 183 °C	O=C(/C=C/c1ccc(O)cc1)CC(=O)/C=C/c1cc(OCc2c(F)cccc2Cl)ccc1[N+](=O)[O-] [CU492, (1E,6E)-1-[5-(2-chloro-6-fluorobenzyloxy)-2-nitrophenyl]-7-(4-hydroxyphenyl)hepta-1,6-diene-3,5-dione]
157 to 161 °C	O=C(/C=C/c1ccc(O)cc1)CC(=O)/C=C/c1cc(OCc2ccc(Cl)cc2Cl)ccc1[N+](=O)[O-] [CU493, (1E,6E)-1-[5-(2,4-dichlorobenzyloxy)-2-nitrophenyl]-7-(4-hydroxyphenyl)hepta-1,6-diene-3,5-dione]
68 to 72 °C	CN(C)c1ccccc1/C=C/C(=O)CC(=O)/C=C/c1ccc(O)cc1 [CU495, (1E,6E)-1-(2-dimethylaminophenyl)-7-(4-hydroxyphenyl)hepta-1,6-diene-3,5-dione]
73 to 80 °C	O=C(/C=C/c1ccc(O)cc1)CC(=O)/C=C/c1ccccc1N1CCCC1 [CU496, (1E,6E)-1-(4-hydroxyphenyl)-7-[2-(pyrrolidin-1-yl)phenyl]hepta-1,6-diene-3,5-dione]
77 to 84 °C	O=C(/C=C/c1ccc(O)cc1)CC(=O)/C=C/c1ccccc1N1CCCCC1 [CU497, (1E,6E)-1-(4-hydroxyphenyl)-7-[2-(piperidin-1-yl)phenyl]hepta-1,6-diene-3,5-dione]
188 to 192 °C	O=C(/C=C/c1ccc(O)cc1)CC(=O)/C=C/c1ccccc1N1CCOCC1 [CU498, (1E,6E)-1-(4-hydroxyphenyl)-7-(2-morpholinophenyl)hepta-1,6-diene-3,5-dione]
126 to 131 °C	CS(=O)(=O)N1CCN(c2ccccc2/C=C/C(=O)CC(=O)/C=C/c2ccc(O)cc2)CC1 [CU500, (1E,6E)-1-(4-hydroxyphenyl)-7-{2-[4-(methylsulfonyl)piperazin-1-yl]phenyl}hepta-1,6-diene-3,5-dione]
102 to 110 °C	O=C(/C=C/c1ccc(O)cc1)CC(=O)/C=C/c1ccccc1N1CCN(CCO)CC1 [CU501, (1E,6E)-1-{2-[4-(2-hydroxyethyl)piperazin-1-yl]phenyl}-7-(4-hydroxyphenyl)hepta-1,6-diene-3,5-dione]
127 to 133 °C	O=C(/C=C/c1ccc(O)cc1)CC(=O)/C=C/c1ccc(Br)cc1N1CCN(CCO)CC1 [CU502, (1E,6E)-1-{4-bromo-2-[4-(2-hydroxyethyl)piperazin-1-yl]phenyl}-7-(4-hydroxyphenyl)hepta-1,6-diene-3,5-dione]
218 to 222 °C	O=C(/C=C/c1ccc(O)cc1)CC(=O)/C=C/c1ccc2ccccc2c1-c1ccccc1 [CU503, (1E,6E)-1-(4-hydroxyphenyl)-7-(1-phenylnaphthalen-2-yl)hepta-1,6-diene-3,5-dione]
176 to 182 °C	O=C(/C=C/c1ccc(O)cc1)CC(=O)/C=C/c1cccc(-c2ccccc2)c1 [CU504, (1E,6E)-1-(biphenyl-3-yl)-7-(4-hydroxyphenyl)hepta-1,6-diene-3,5-dione]
97 to 100 °C	CCn1c2ccccc2c2cc(CCC(=O)CC(=O)CCc3ccc(OC)c(O)c3)ccc21 [CU508, 1-(9-ethyl-9H-carbazol-3-yl)-7-(3-hydroxy-4-methoxyphenyl)heptane-3,5-dione]
163 to 169 °C	COc1ccc(O)cc1CCC(=O)CC(=O)CCc1cc(O)ccc1OC [CU512, 1,7-bis(5-hydroxy-2-methoxyphenyl)heptane-3,5-dione]
180 to 189 °C	O=C(/C=C/c1ccc(O)cc1)CC(=O)/C=C/c1ccccc1-c1cccnc1 [CU513, (1E,6E)-1-(4-hydroxyphenyl)-7-[2-(pyridin-3-yl)phenyl]hepta-1,6-diene-3,5-dione]
249 to 256 °C	O=C(/C=C/c1ccc(O)cc1)CC(=O)/C=C/c1ccccc1-c1ccncc1 [CU514, (1E,6E)-1-(4-hydroxyphenyl)-7-[2-(pyridin-4-yl)phenyl]hepta-1,6-diene-3,5-dione]
131 to 135 °C	COc1cc(O)ccc1/C=C/C(=O)CC(=O)CCc1ccc(O)cc1 [CU517, (E)-1-(4-hydroxy-2-methoxyphenyl)-7-(4-hydroxyphenyl)hept-1-ene-3,5-dione]
44 to 49 °C	CN(C)c1ccc(/C=C/C(=O)CC(=O)CCc2ccc(O)cc2)c2ccccc12 [CU518, (E)-1-(4-dimethylaminonaphthalen-1-yl)-7-(4-hydroxyphenyl)hept-1-ene-3,5-dione]
136 to 142 °C	CN(C)c1ccc(/C=C/C(=O)CC(=O)CCc2ccc(O)cc2)c([N+](=O)[O-])c1 [CU523, (E)-1-(4-dimethylamino-2-nitrophenyl)-7-(4-hydroxyphenyl)hept-1-ene-3,5-dione]
120 to 129 °C	CN(C)c1ccc(/C=C/C(=O)CC(=O)CCc2ccc(O)cc2)c(Cl)c1 [CU524, (E)-1-(2-chloro-4-dimethylaminophenyl)-7-(4-hydroxyphenyl)hept-1-ene-3,5-dione]
179 to 186 °C	O=C(/C=C/c1ccc(O)cc1)CC(=O)/C=C/c1cc(O)ccc1-c1ccccc1 [CU526, (1E,6E)-1-(4-hydroxybiphenyl-2-yl)-7-(4-hydroxyphenyl)hepta-1,6-diene-3,5-dione]
172 to 178 °C	O=C(/C=C/c1ccc(O)cc1)CC(=O)/C=C/c1cc(OCc2ccccc2)ccc1-c1ccccc1 [CU527, (1E,6E)-1-(4-benzyloxybiphenyl-2-yl)-7-(4-hydroxyphenyl)hepta-1,6-diene-3,5-dione]
95 to 101 °C	O=C(/C=C/c1ccc(O)cc1)CC(=O)/C=C/c1ccccc1-c1cccc2ccccc12 [CU528, (1E,6E)-1-(4-hydroxyphenyl)-7-[2-(naphthalen-1-yl)phenyl]hepta-1,6-diene-3,5-dione]
105 to 114 °C	O=C(/C=C/c1ccc(O)cc1)CC(=O)/C=C/c1ccccc1-c1ccc2ccccc2c1 [CU529, (1E,6E)-1-(4-hydroxyphenyl)-7-[2-(naphthalen-2-yl)phenyl]hepta-1,6-diene-3,5-dione]
74 to 81 °C	CN(C)c1cc(Br)ccc1/C=C/C(=O)CC(=O)/C=C/c1ccc(O)cc1 [CU533, (1E,6E)-1-(4-bromo-2-dimethylaminophenyl)-7-(4-hydroxyphenyl)hepta-1,6-diene-3,5-dione]
68 to 72 °C	CN(C)c1ccc(Br)cc1/C=C/C(=O)CC(=O)/C=C/c1ccc(O)cc1 [CU534, (1E,6E)-1-(5-bromo-2-dimethylaminophenyl)-7-(4-hydroxyphenyl)hepta-1,6-diene-3,5-dione]

Compound	melting point
CC(C)(C)OC(=O)N1CCN(c2ccccc2/C=C/C(=O)CC(=O)/C=C/c2ccc(O)cc2)CC1 [CU499, (1E,6E)-1-{2-[4-(tert-butoxycarbonyl)piperazin-1-yl]phenyl}-7-(4-hydroxyphenyl)hepta-1,6-diene-3,5-dione]	115 to 121 °C
